According to article PMC11480511 (Scientific Reports, 2024):

What was measured:
[1] = test system: normal cell line WI 38; assay: MTT cytotoxicity assay on normal cells; type: cell-based; settings: Homo sapiens; normal cell line WI 38, MTT assay, ± SEM; read-out: IC50 W138 normal cell line (µM ± SEM)
Experimental: After 24 h of culture incubation and supernatants discarded. […] Each test should include a blank containing complete medium without cells. […] Add reconstituted MTT in an amount equal to 10% of the culture medium volume. […] Spectrophotometrically absorbance was measured at a wavelength of 570 nm. […] Results from all experiments were recorded and the percentage of viable cells was calculated.

[2] = test system: melanoma LOX IMVI cell line; assay: Annexin V-FITC/PI apoptosis and necrosis assay; type: cell-based, human; settings: LOX IMVI treated with IC50 concentration
Experimental: Following the manufacturer’s instructions, the Annexin V-FITC Apoptosis Detection Kit (Bio Vision Research Products, USA) was used to analyze cell apoptosis. Briefly, 500 µL of 1X Binding buffer was used to resuspend 1-5 × 10^5 cells that had been harvested by centrifugation. Propidium iodide (PI, 50 mg/ml) and Annexin V-FITC, each administered in 5 µL, were also added. The cells were first incubated for 5 minutes at room temperature in the dark before being analyzed using the Annexin V-FITC binding flow cytometric technique (Ex = 488 nm; Em = 530 nm) with a FITC signal detector (typically FL1) and PI staining with a phycoerythrin emission signal detector (typically FL2). Before exposing adherent cells to Annexin V-FITC, we gently trypsinized and gave them a single wash in serum-containing medium (A.3–5). Cell synchronisation is done using Double-thymidine synchronization method and the used Media is double modifed eagle media (DMEM).
Cell cycle analysis and detection of apoptosis
Annexin V-FITC apoptosis assay
Cell apoptosis were analyzed by the Annexin V-FITC Apoptosis Detection Kit (Bio Vision Research Products, USA). Thereafter, 1-5 x 10^5 cells were collected by centrifugation and resuspend in 500 μl of 1X Binding Buffer. Added 5 μl of Annexin V-FITC and 5 μl of propidium iodide (PI 50mg/ml, optional.). The cells incubated at room temperature for 5 min in the dark; Analyzed by Annexin V-FITC binding flow cytometric method (Ex = 488 nm; Em = 530 nm) using FITC signal detector (usually FL1) and PI staining by the phycoerythrin emission signal detector (usually FL2). For adherent cells, we gently trypsinized and washed cells once with serum-containing media before incubation with Annexin V-FITC (A.3-5). […]

O=C(O)c1cn(C2CC2)c2cc(N3CCN(C(=O)CCCN4C(=O)S/C(=C\c5ccc(F)cc5)C4=O)CC3)c(F)cc2c1=O [3i]
IC50 [1]: 45.1 ± 2.43 µM
Apoptosis Early [2]: 3.03%
Apoptosis Late [2]: 24.17%
Apoptosis Total [2]: 38.51%
Necrosis [2]: 11.31%
